The text below walks through data of US20050070437A1, “Herbicide combinations comprising specific sulfonamides” (Bayer CropScience GmbH, priority 2003, published 2005).

The test system of one series is Triticum aestivum. Format: in vivo. The settings on record: field trial, natural outdoor conditions; scored visually about 4 weeks after application vs untreated plots; mean of 2-4 plots; application rate g of active substance/hectare: A 5, B 25, C 50 (A + B 5 + 25; A + B + C 5 + 25 + 50). As for the experimental part: (§1) The seeds or rhizome pieces of the harmful plants and the useful plants were laid out or were present in the soil, and they were grown under natural outdoor conditions. Treatment with the active compounds or active compound combinations was carried out […] before and/or after the emergence of the plants, generally at the 2- to 4-leaf stage, in various dosages using a water application rate of 100 to 400 l/ha (converted).
(§2) After the application (about 4 weeks after the application), the effectiveness of the active compounds or active compound combinations was scored visually by comparing the treated plots to untreated control plots. During scoring, damage and development of all above-ground parts of plants was assessed. Scoring was carried out using a percentage scale (100% effect=all plants have died; 50% effect=50% of the plants and the green parts of the plants have died; 0% effect=no effect observed=like control plot). In each case, the mean score of 2-4 plots was calculated.
(§3) The results are shown in the table below; the effect of the individual application of active compounds (A+B) and C being stated in brackets.

Another series concerns Veronica hederifolia. Put plainly: Herbicidal action (field trials), visual scoring of harmful plant. Particulars: field trial, natural outdoor conditions; scored visually about 4 weeks after application vs untreated plots; mean of 2-4 plots; application rate g of active substance/hectare: A 5, B 25, C 50 (A + B 5 + 25; A + B + C 5 + 25 + 50). It is filed as in vivo. As to the method:
as §1, §2, §3

The structures appear in SMILES notation.

As to `O=C(Nc1ccc(F)cc1F)c1cccnc1Oc1cccc(C(F)(F)F)c1` [diflufenican, 2′,4′-difluoro-2-(α,α,α-trifluoro-m-tolyloxy)nicotinanilide], in the series on Triticum aestivum, the “Triticum aestivum % damage” value was 0%. Further, the “Veronica hederifolia % effect” value in the series with Veronica hederifolia stood at 40%.
For the compound `COC(=O)c1ccc(I)cc1S(=O)(=O)[N-]C(=O)Nc1nc(C)nc(OC)n1.[Na+]` [iodosulfuron-methyl-sodium], the “Triticum aestivum % damage” value in the series on Triticum aestivum is 1%. Besides, the “Veronica hederifolia % effect” value in the series on Veronica hederifolia stood at 15%.
The matching figures for `CCCOc1nn(C(=O)[N-]S(=O)(=O)c2ccccc2C(=O)OC)c(=O)n1C.[Na+]` [propoxycarbazone-sodium]: 2% and 28%.
